Activity calls are given as the source filed them. No cut-off for these calls is given here.
Experiments:
Tumor Cell line [1] = experiment: In vitro inhibition of 50% cell growth was reported as log of molar concentration for 54 cell lines.; type: functional; conditions: Homo sapiens
Tumor Cell line [2] = experiment: Log of molar concentration leading to 50% cell death was reported; type: functional; conditions: Homo sapiens, read-out: Log LC50 (the source's name) (converted)
Tumor Cell line [3] = experiment: In vitro total growth inhibition for 50 cell lines was reported as log of molar concentration; type: functional, Homo sapiens
Tumor Cell line [4] = experiment: In vitro inhibition of 50% cell growth was reported as log of molar concentration for 57 cell lines.; type: functional; conditions: Homo sapiens
Tumor Cell line [5] = experiment: In vitro inhibition of 50% cell growth was reported as log of molar concentration for 58 cell lines.; type: functional; conditions: Homo sapiens
Tumor Cell line [6] = experiment: In vitro inhibition of 50% cell growth was reported as log of molar concentration for 56 cell lines.; type: functional; conditions: Homo sapiens
Tumor Cell line [7] = experiment: Log of molar concentration leading to 50% cell death was reported for 50 cell lines; type: functional; conditions: Homo sapiens, read-out: Log LC50 (the source's name) (converted)
Tumor Cell line [8] = experiment: In vitro inhibition of 50% cell growth was reported as log of molar concentration for 54 cell lines; Inactive; type: functional, cell-based; conditions: Homo sapiens
Tumor Cell line [9] = experiment: In vitro total growth inhibition for 50 cell lines was reported as log of molar concentration; Inactive; type: functional, cell-based; conditions: Homo sapiens
Tumor Cell line [10] = experiment: Log of molar concentration leading to 50% cell death was reported; Inactive; type: functional, cell-based; conditions: Homo sapiens
Tumor Cell line [11] = experiment: In vitro inhibition of 50% cell growth was reported as log of molar concentration for 46 cell lines.; type: functional; conditions: Homo sapiens
Tumor Cell line [12] = experiment: In vitro inhibition of 50% cell growth was reported as log of molar concentration for 50 cell lines.; type: functional; conditions: Homo sapiens

| Structure (SMILES) | CC50 (Tumor Cell line [2]) [µM] | Log GTI (Tumor Cell line [3]) | IA (Tumor Cell line [8]) | IA (Tumor Cell line [9]) | IA (Tumor Cell line [10]) | other results |
| --- | --- | --- | --- | --- | --- | --- |
| O=C1c2ccccc2/N=C(/c2cc3c(cc2Cl)Sc2nccn2S3(=O)=O)OS(=O)(=O)N1c1ccccc1 | 91.2 | -4.04 |  |  |  | GI50 (Tumor Cell line [1]): 81.3 µM |
| Cc1ccc2cc(NC(=O)c3cc4c(cc3Cl)Sc3nccn3S4(=O)=O)ccc2n1 | 100 | -4.06 |  |  |  | GI50 (Tumor Cell line [4]): 33.9 µM |
| O=C(Nc1ccccn1)c1cc2c(cc1Cl)Sc1nccn1S2(=O)=O | 58.9 | -4.02 |  |  |  | GI50 (Tumor Cell line [5]): 70.8 µM |
| O=C(Nc1cccc2cnccc12)c1cc2c(cc1Cl)Sc1nccn1S2(=O)=O |  | -4.04 |  |  |  | GI50 (Tumor Cell line [6]): 39.8 µM; CC50 (Tumor Cell line [7]): 100 µM |
| O=C(c1cc2c(cc1Cl)Sc1nccn1S2(=O)=O)N1c2ccccc2C=Cc2ccccc21 |  |  | inactive | inactive | inactive |  |
| Cc1cccnc1NC(=O)c1cc2c(cc1Cl)Sc1nccn1S2(=O)=O |  |  | inactive | inactive | inactive |  |
| O=C(Oc1c(-c2ccccc2)oc2ccccc2c1=O)c1cc2c(cc1Cl)Sc1nccn1S2(=O)=O |  |  | inactive | inactive | inactive |  |
| O=c1c2ccccc2nc(-c2cc3c(cc2Cl)Sc2nccn2S3(=O)=O)n1-c1ccccc1 | 85.1 | -4.07 |  |  |  | GI50 (Tumor Cell line [11]): 89.1 µM |
| Cc1ccnc(NC(=O)c2cc3c(cc2Cl)Sc2nccn2S3(=O)=O)c1 |  |  | inactive | inactive | inactive |  |
| O=C(Nc1ccccc1C(=O)Nc1ccccc1)c1cc2c(cc1Cl)Sc1nccn1S2(=O)=O |  |  | inactive | inactive | inactive |  |
| O=C(Nc1ccc2cc3ccccc3cc2c1)c1cc2c(cc1Cl)Sc1nccn1S2(=O)=O |  | -4.52 |  |  |  | GI50 (Tumor Cell line [12]): 87.1 µM |
| O=C(Nc1ccc2scnc2c1)c1cc2c(cc1Cl)Sc1nccn1S2(=O)=O |  |  | inactive | inactive | inactive |  |
